# Experimental data: patent EP0527889B1, “QUINOLIZINONE TYPE COMPOUNDS” (priority 1990, dated 1991)
# What was measured:
# Assay in all cases: In vitro antibacterial activity, MIC by agar dilution
# Assay type in all cases: cell-based
# Settings in all cases: BHI agar, 35-37°C, 20-24 hours, unit assumed
# [1] = test system: Pseudomonas cepacia 296I
# Description: (§1) Each plate was inoculated with 1:100 (or 1:10 for slow growing strains, primarily Micrococcus and Streptococcus) dilutions of up to 32 different microorganisms, using a Steers replicator block calibrated to deliver approximately 10^4 colony forming units (CFUs). The inoculated plates were incubated at from about 35°C to about 37°C for approximately 20-24 hours. In addition, a control plate using BHI agar containing no test compound was prepared and incubated at the beginning and at the end of each test. Ciprofloxacin was used as the control antibiotic.
# (§2) The MIC was defined as the lowest concentration of test compound yielding no growth (a slight haze or sparsely isolated colonies at the inoculum spot) as compared to the growth control containing no test compound.
# [2] = test system: Pseudomonas aeruginosa 5263
# Description: as §1, §2
# [3] = test system: Staphylococcus aureus A5177
# Description: as §1, §2
# [4] = test system: Klebsiella pneumoniae ATCC 8045
# Description: as §1, §2
# [5] = test system: Enterococcus faecium ATCC 8043
# Description: as §1, §2
# [6] = test system: Pseudomonas aeruginosa BMH10
# Description: as §1, §2
# [7] = test system: Acinetobacter calcoaceticus CMX 669
# Description: as §1, §2
# [8] = test system: Pseudomonas aeruginosa K799/61
# Description: as §1, §2
# [9] = test system: Escherichia coli H560
# Description: as §1, §2
# [10] = test system: Providencia stuartii CMX 640
# Description: as §1, §2
# [11] = test system: Pseudomonas aeruginosa K799/WT
# Description: as §1, §2
# [12] = test system: Staphylococcus aureus 642A
# Description: as §1, §2
# [13] = test system: Streptococcus pyrogenes 2548 INDUC
# Description: as §1, §2
# [14] = test system: Streptococcus agalactaciae CMX 508
# Description: as §1, §2
# [15] = test system: Staphylococcus aureus NCTC 10649
# Description: as §1, §2
# [16] = test system: Streptococcus bovis A5169
# Description: as §1, §2
# [17] = test system: Streptococcus pyrogenes EES61
# Description: as §1, §2
# [18] = test system: Escherichia coli DC-2
# Description: as §1, §2
# [19] = test system: Staphylococcus aureus CMX 553
# Description: as §1, §2
# [20] = test system: Escherichia coli JUHL
# Description: as §1, §2
# [21] = test system: Pseudomonas aeruginosa A5007
# Description: as §1, §2
# [22] = test system: Staphylococcus aureus ATCC 6538P
# Description: as §1, §2
# [23] = test system: Escherichia coli SS
# Description: as §1, §2
# [24] = test system: Micrococcus luteus ATCC 4698
# Description: as §1, §2
# [25] = test system: Micrococcus luteus ATCC 9341
# Description: as §1, §2
# [26] = test system: Staphylococcus aureus A-5278
# Description: as §1, §2
# [27] = test system: Streptococcus pyrogenes CONST
# Description: as §1, §2
# [28] = test system: Escherichia coli KNK 437
# Description: as §1, §2
# [29] = test system: Staphylococcus epidermidis 3519
# Description: as §1, §2
# [30] = test system: Enterobacter aerogenes ATCC 13048
# Description: as §1, §2
# [31] = test system: Pseudomonas aeruginosa 2862
# Description: as §1, §2
# [32] = test system: Staphylococcus aureus 1775
# Description: as §1, §2
Compound,MIC values [1],MIC values [3],MIC values [4],MIC values [5],MIC values [6],MIC values [7],MIC values [8],MIC values [9],MIC values [10],MIC values [11],MIC values [12],MIC values [13],MIC values [14],MIC values [16],MIC values [21],MIC values [23],MIC values [26],MIC values [29],MIC values [30],MIC values [32],other results
"O=C(O)c1cn(C2CC2)c2cc(N3CCNCC3)c(F)cc2c1=O [Cntl, Ciprofloxacin, reference compound]",3.1 µg/mL,0.39 µg/mL,0.02 µg/mL,0.39 µg/mL,0.1 µg/mL,0.39 µg/mL,0.02 µg/mL,0.01 µg/mL,0.78 µg/mL,0.1 µg/mL,0.39 µg/mL,0.39 µg/mL,0.39 µg/mL,1.56 µg/mL,0.1 µg/mL,0.005 µg/mL,0.39 µg/mL,0.39 µg/mL,0.05 µg/mL,> 100 µg/mL,MIC values [2]: 12.5 µg/mL; MIC values [15]: 0.39 µg/mL; MIC values [17]: 0.39 µg/mL; MIC values [18]: 0.2 µg/mL; MIC values [19]: 0.78 µg/mL; MIC values [20]: 0.01 µg/mL; MIC values [22]: 0.2 µg/mL; MIC values [24]: 0.78 µg/mL; MIC values [25]: 1.56 µg/mL; MIC values [27]: 0.78 µg/mL; MIC values [28]: 0.2 µg/mL; MIC values [31]: 25 µg/mL
"CN1CCN(c2nc3c(-c4ccc(F)cc4)cc(C(=O)O)c(=O)n3cc2F)CC1 [Example 2, 3-Fluoro-9-(4-fluorophenyl)-2-(4-methylpiperazin-1-yl)-6H-6-oxo-pyrido[1,2-a]pyrimidine-7-carboxylic acid]",25 µg/mL,0.78 µg/mL,0.2 µg/mL,25 µg/mL,6.2 µg/mL,0.78 µg/mL,0.39 µg/mL,0.39 µg/mL,25 µg/mL,3.1 µg/mL,0.78 µg/mL,3.1 µg/mL,12.5 µg/mL,25 µg/mL,6.2 µg/mL,0.05 µg/mL,0.78 µg/mL,0.78 µg/mL,0.78 µg/mL,25 µg/mL,MIC values [15]: 0.39 µg/mL; MIC values [17]: 6.2 µg/mL; MIC values [18]: 12.5 µg/mL; MIC values [19]: 0.78 µg/mL; MIC values [20]: 0.39 µg/mL; MIC values [22]: 0.39 µg/mL; MIC values [24]: 25 µg/mL; MIC values [25]: 50 µg/mL; MIC values [27]: 6.2 µg/mL; MIC values [28]: 6.2 µg/mL
"NC1CCN(c2nc3c(C4CC4)cc(C(=O)O)c(=O)n3cc2F)C1 (stereo not shown) [Example 158, 2-(3-Aminopyrrolidin-1-yl)-9-cyclopropyl-3-fluoro-6H-6-oxo-pyrido[1,2-a]pyrimidine-7-carboxylic acid]",–,–,0.05 µg/mL,–,–,–,–,–,3.1 µg/mL,–,0.2 µg/mL,0.78 µg/mL,–,6.2 µg/mL,0.2 µg/mL,0.01 µg/mL,0.78 µg/mL,0.39 µg/mL,0.1 µg/mL,100 µg/mL,MIC values [20]: 0.02 µg/mL; MIC values [31]: 50 µg/mL
"O=C(O)c1cc(C2CC2)c2nc(N3CCOCC3)c(F)cn2c1=O [Example 165, 9-Cyclopropyl-3-fluoro-2-(morpholin-1-yl)-6H-6-oxo-pyrido[1,2-a]pyrimidine-7-carboxylic acid]",25 µg/mL,6.2 µg/mL,0.39 µg/mL,> 100 µg/mL,50 µg/mL,6.2 µg/mL,3.1 µg/mL,3.1 µg/mL,> 100 µg/mL,25 µg/mL,6.2 µg/mL,> 100 µg/mL,> 100 µg/mL,> 100 µg/mL,25 µg/mL,0.2 µg/mL,6.2 µg/mL,6.2 µg/mL,3.1 µg/mL,> 100 µg/mL,MIC values [15]: 6.2 µg/mL; MIC values [17]: > 100 µg/mL; MIC values [18]: > 100 µg/mL; MIC values [19]: 6.2 µg/mL; MIC values [20]: 3.1 µg/mL; MIC values [22]: 6.2 µg/mL; MIC values [24]: > 100 µg/mL; MIC values [25]: > 100 µg/mL; MIC values [27]: > 100 µg/mL; MIC values [28]: > 100 µg/mL
"O=C(O)c1cc(-c2ccc(F)cc2F)c2nc(N3CCC(O)C3)c(F)cn2c1=O (stereo not shown) [Example 170, 9-(2,4-Difluorophenyl)-3-fluoro-2-(3-hydroxypyrrolidin-1-yl)-6H-6-oxopyrido[1,2-a]pyrimidine-7-carboxylic acid]",6.2 µg/mL,0.1 µg/mL,0.05 µg/mL,0.78 µg/mL,0.78 µg/mL,0.2 µg/mL,0.05 µg/mL,0.1 µg/mL,6.2 µg/mL,0.78 µg/mL,0.1 µg/mL,0.39 µg/mL,0.78 µg/mL,6.2 µg/mL,0.78 µg/mL,0.001 µg/mL,0.1 µg/mL,0.2 µg/mL,0.39 µg/mL,100 µg/mL,MIC values [2]: > 100 µg/mL; MIC values [15]: 0.05 µg/mL; MIC values [17]: 0.78 µg/mL; MIC values [18]: 3.1 µg/mL; MIC values [19]: 0.2 µg/mL; MIC values [22]: 0.05 µg/mL; MIC values [24]: 1.56 µg/mL; MIC values [25]: 12.5 µg/mL; MIC values [27]: 0.78 µg/mL; MIC values [28]: 1.56 µg/mL; MIC values [31]: > 100 µg/mL
